The target of the data set is HSD17B13. To be noted: ASO, HepaRG.

After the bases stand the sugars from the 5' end (letter, count) and the backbone: PS all phosphorothioate, else s phosphorothioate and o phosphodiester by linkage. Methylation of C is not given here. e = 2'-O-(2-methoxyethyl) (MOE); k = constrained ethyl (cEt); d = 2'-deoxy (DNA); m = 2'-O-methyl

On to TTGCAGCATTGATTCG (sugars k3 d10 k3, PS), for which, where the note is “1 µM”, the target mRNA inhibition was 59%. As to ATTATTTCTTGCGAGA (sugars k3 d10 k3, PS), the target mRNA inhibition (1 µM) worked out at 60%. ATGGTAAGGAGTAGTG (sugars k3 d10 k3, PS) came in with a target mRNA inhibition (1 µM) of 17%.

The sequence GACAGTAAAATTATGC (sugars k3 d10 k3, PS) returned a target mRNA inhibition (1 µM) of 57%. Still for that read-out and setting: for “CCATCTATCAGACTTC (sugars k3 d9 k3 e1, PS)” the value was 60%; for “CGTTTGACTGCTGCTA (sugars kkdddddddddkekek, PS)”, 48%. On to AACATCTCTGGGACCA (sugars k3 d10 k3, PS), for which the target mRNA inhibition runs as follows: (0.02 µM) 0%; (0.078 µM) 11%; (0.313 µM) 44%; (1 µM) 74%; (1.25 µM) 64%; (5 µM) 81%. CTTGATTAAGGCAAAG (sugars k3 d10 k3, PS) came in with a target mRNA inhibition (1 µM) of 38%. AAGTTAGTATAGTTAT (sugars k3 d10 k3, PS) registered a target mRNA inhibition (1 µM) of 20%. On the same count and under the same terms, as for ATGTGATTGAGTTCTC (sugars k3 d10 k3, PS), the figure is 36%; as for “TCACCTTTCATAATGT (sugars kkdddddddddkekek, PS)”, 31%. Turning to “TAGTGTAAGCTGAGAG (sugars k3 d9 k3 e1, PS)”, the target mRNA inhibition came to 6% (0.02 µM); 13% (0.078 µM); 52% (0.313 µM); 82% (1 µM); 69% (1.25 µM); 79% (5 µM). As to AATTCATAAGTAGTCT (sugars k3 d10 k3, PS), the target mRNA inhibition (1 µM) stood at 28%.

For the setting “1 µM”, “CATCTTAAGATACCCA (sugars kkdddddddddkekek, PS)” displayed a target mRNA inhibition of 59%. Same read-out and setting: as for GAACACTTTCACTGGG (sugars k3 d10 k3, PS), the figure is 0%. Still for that read-out and setting: as for GCTAGTAATTGCATCT (sugars k3 d10 k3, PS), the figure is 47%; as for ATCCAAAGATGAGAGT (sugars k3 d10 k3, PS), 5%; as for GACTTGCCTCATTTAG (sugars k3 d10 k3, PS), 69%.

The sequence GTAATTACTTCTGATG (sugars k3 d10 k3, PS) yielded a target mRNA inhibition (1 µM) of 41%. Same read-out and setting: for “AGTACAGTTCCTTTTC (sugars k3 d9 k3 e1, PS)” the value was 59%. Still for that read-out and setting: as for GTCTTAAACCTTCCCT (sugars k3 d10 k3, PS), the figure is 63%; as for TGGATATACTGTCCCA (sugars k3 d10 k3, PS), 24%. As for “CCTCTAAGTTAGCCCC (sugars k3 d9 k3 e1, PS)”, for the setting “1 µM”, the target mRNA inhibition came out at 16%.

“AATTGATACACCAATG (sugars k3 d9 k3 e1, PS)” gave a target mRNA inhibition (1 µM) of 53%.

Sequence “GTGCCAAACCAATGTT (sugars k3 d1 m1 d8 k3, PS)” displayed a target mRNA inhibition (1 µM) of 30%. Same read-out and setting: as for CTAGTTGCAATGAGAT (sugars k3 d10 k3, PS), the figure is 65%.

Regarding CAAATTCATAAGTAGT (sugars k3 d10 k3, PS), the target mRNA inhibition (1 µM) was found to be 76%. For the sequence TACATTCTTCAGGTGT (sugars k3 d10 k3, PS), the target mRNA inhibition (1 µM) was 61%. Same read-out and setting: for ATCAACCTGCACACCA (sugars k3 d10 k3, PS) the value was 63%; for ATGCTAAAAGCTCACC (sugars k3 d10 k3, PS), 50%. On the same count and under the same terms, for AAGTTCTGATGTCAGA (sugars k3 d10 k3, PS) the value was 7%.

The sequence GAGTCGGATTATTTTT (sugars k3 d10 k3, PS) registered a target mRNA inhibition (1 µM) of 44%. Under “1 µM”, “TTTCTTATGTAATAGC (sugars kkdddddddddkekek, PS)” had a target mRNA inhibition of 60%.

For “TTGAUATTCTGTGGCA (sugars k3 d1 m1 d8 k3, PS)”, the target mRNA inhibition (1 µM) came to 60%. On the same count and under the same terms, for “CTAGTGCCAAACCAAT (sugars k3 d9 k3 e1, PS)” the value was 61%; for TTTACTGGGATACTAT (sugars k3 d10 k3, PS), 25%; for CCTAGTTGCAATGAGA (sugars k3 d10 k3, PS), 77%. TTAGAGTGCTTAGTTC (sugars k3 d10 k3, PS) came in with a target mRNA inhibition (1 µM) of 58%. Still for that read-out and setting: as for GGGAGGTAGCTTTTGT (sugars k3 d10 k3, PS), the figure is 10%; as for GATTTTTGGTGAACCC (sugars k3 d10 k3, PS), 30%; as for GATACCTGAAAAGCCC (sugars k3 d10 k3, PS), 49%. On the same count and under the same terms, for TCAAAAAGGCCCAAGG (sugars k3 d10 k3, PS) the value was 46%. For TTCATTCGAATTTCTT (sugars k3 d10 k3, PS), the target mRNA inhibition is 12% (0.02 µM); 10% (0.078 µM); 43% (0.313 µM); 71% (1 µM); 78% (1.25 µM); 89% (5 µM). The sequence “GATGTAGTGGGAGTCG (sugars k3 d9 k3 e1, PS)” came in with a target mRNA inhibition (1 µM) of 42%. Still for that read-out and setting: as for TCTCTCCATCATCGAT (sugars k3 d10 k3, PS), the figure is 24%. As for “AGTCCATGCAAAAGCA (sugars kkdddddddddkekek, PS)”, where the note is “1 µM”, the target mRNA inhibition stood at 52%. Still for that read-out and setting: as for CCATTATCCTTACTCC (sugars k3 d10 k3, PS), the figure is 27%; as for CCTCCACACCGCGCTT (sugars k3 d10 k3, PS), 16%; as for “CTTTGCAGCATTGATT (sugars k3 d1 m1 d8 k3, PS)”, 19%. The same measure, in the same setting: as for TACTCTAGGAGATATA (sugars k3 d10 k3, PS), the figure is 33%. Still for that read-out and setting: as for TCTTATAAGACTATAA (sugars k3 d10 k3, PS), the figure is 17%; as for “CTTGATGTAGTGGGAG (sugars k3 d1 m1 d8 k3, PS)”, 67%. The sequence TTCTCTCCATCATCGA (sugars k3 d10 k3, PS) displayed a target mRNA inhibition (1 µM) of 35%. Same read-out and setting: for TAAGAGATGAGTAGGC (sugars k3 d10 k3, PS) the value was 46%. In the case of TTGTTAAGCAGATGGC (sugars k3 d10 k3, PS), the target mRNA inhibition came out at 1% (0.02 µM); 1% (0.078 µM); 30% (0.313 µM); 84% (1 µM); 79% (1.25 µM); 85% (5 µM). Under “1 µM”, GGAGGAGGTACTGTCT (sugars k3 d10 k3, PS) gave a target mRNA inhibition of 44%. For the sequence “TGCATCTTAAGATACC (sugars kkdddddddddkekek, PS)”, the target mRNA inhibition (1 µM) was determined as 24%. Same read-out and setting: for “AGCTTTTGTCCACCTT (sugars kkdddddddddkekek, PS)” the value was 62%.

The sequence TTTGACTGCTGCTAGT (sugars k3 d10 k3, PS) returned a target mRNA inhibition (1 µM) of 21%. “TATTATGTGATTGAGT (sugars kkdddddddddkekek, PS)” had a target mRNA inhibition (1 µM) of 65%. TACGACAGGTCATCTT (sugars k3 d10 k3, PS): where the note is “1 µM”, the target mRNA inhibition worked out at 58%.

In the case of “TCCCAACCAAACTTCC (sugars kkdddddddddkekek, PS)”, the target mRNA inhibition (1 µM) was found to be 27%. On the same count and under the same terms, as for CCCTAATGTGTTTTCC (sugars k3 d10 k3, PS), the figure is 25%. Same read-out and setting: for TGTATTAAGACAGTTG (sugars k3 d10 k3, PS) the value was 34%; for GACCTCTGTGAAAGCC (sugars k3 d10 k3, PS), 46%. On the same count and under the same terms, as for TCATTATAAGCTAACT (sugars k3 d10 k3, PS), the figure is 0%; as for TAACTTCATAGTGGAC (sugars k3 d10 k3, PS), 76%; as for “ACAGATTGGAATGCTA (sugars k3 d1 m1 d8 k3, PS)”, 70%. For the sequence TGACTAAGGAGCTAGA (sugars k3 d10 k3, PS), under “1 µM”, the target mRNA inhibition was determined as 31%.

TGTTTTAGTATTTGGG (sugars k3 d10 k3, PS): the target mRNA inhibition (1 µM) was determined as 48%. Same read-out and setting: for GATCTTAAGGATCATT (sugars k3 d10 k3, PS) the value was 0%. On to GTTACCAGAGCATTCA (sugars k3 d10 k3, PS), for which the target mRNA inhibition is, setting by setting: (0.02 µM) 19%; (0.078 µM) 36%; (0.313 µM) 63%; (1 µM) 73%; (1.25 µM) 74%; (5 µM) 92%. CAAATGAGGCGGCACT (sugars k3 d10 k3, PS): for the setting “1 µM”, the target mRNA inhibition turned out to be 32%.

On to TCTACATGGATCCAAC (sugars k3 d10 k3, PS), for which, under “1 µM”, the target mRNA inhibition worked out at 26%. With TGTACAAATTTATGCC (sugars k3 d10 k3, PS), under “1 µM”, the target mRNA inhibition is 67%. Still for that read-out and setting: for GTTTTTATTGGGCCCA (sugars k3 d10 k3, PS) the value was 67%; for CAAGTAAGGTAAAGTC (sugars k3 d10 k3, PS), 33%; for TGACATAACTACTTCA (sugars k3 d10 k3, PS), 22%. TCTTAGCTGTGCACTC (sugars k3 d10 k3, PS) came in with a target mRNA inhibition (1 µM) of 69%. CATAGGCTTAGTGTAG (sugars k3 d10 k3, PS) had a target mRNA inhibition (1 µM) of 38%. The same measure, in the same setting: for GATGTATACATTACCT (sugars k3 d10 k3, PS) the value was 67%; for “GCTACTTGAACAGTCT (sugars kkdddddddddkekek, PS)”, 64%. Still for that read-out and setting: for CAGCTATAGGTAGCTA (sugars k3 d10 k3, PS) the value was 0%; for CTAGAATTAAGGGCTA (sugars k3 d10 k3, PS), 42%; for CCTAAGTTATTATCCC (sugars k3 d10 k3, PS), 18%.

For the origin of these results see the OligoGym collection.
